Where “and” joins values, the source holds several entries; their conditions need not be identical. Equal values may be shown once. Toxic doses and inconclusive results are not listed.
System: L1210 leukemia ip in BDF1 mice, survival T/C
Experiment: NCI In Vivo Anticancer Drug Screen. Data for tumor model L1210 Leukemia (intraperitoneal) in B6D2F1 (BDF1) mice
Settings: endpoint: mean survival time, higher = longer survival
Method in brief: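 Read-out is survival time, reported as the treated-group measurement over the vehicle-control measurement.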

[1] = dose: 100.0 mg/kg/injection, schedule: Q01DX009 (ip), vehicle: Klucel (hydroxypropylcellulose) (HPC)
[2] = dose: 200.0 mg/kg/injection, schedule: Q01DX009 (ip), vehicle: Klucel (hydroxypropylcellulose) (HPC)
[3] = dose: 400.0 mg/kg/injection, schedule: Q01DX009 (ip), vehicle: Klucel (hydroxypropylcellulose) (HPC)
[4] = dose: 50.0 mg/kg/injection, schedule: Q01DX009 (ip), vehicle: Klucel (hydroxypropylcellulose) (HPC)
[5] = dose: 50.0 mg/kg/injection, schedule: Q01DX009 (ip), vehicle: saline
[6] = dose: 100.0 mg/kg/injection, schedule: Q01DX009 (ip), vehicle: saline
[7] = dose: 100.0 mg/kg/injection, schedule: Q01DX001 (ip), vehicle: saline
[8] = dose: 200.0 mg/kg/injection, schedule: Q01DX001 (ip), vehicle: saline
[9] = dose: 400.0 mg/kg/injection, schedule: Q01DX001 (ip), vehicle: saline
[10] = dose: 100.0 mg/kg/injection, schedule: Q01DX009 (ip), vehicle: saline with Tween-80
[11] = dose: 200.0 mg/kg/injection, schedule: Q01DX009 (ip), vehicle: saline with Tween-80
[12] = dose: 100.0 mg/kg/injection, schedule: Q04DX003 (ip), vehicle: saline
[13] = dose: 200.0 mg/kg/injection, schedule: Q04DX003 (ip), vehicle: saline

`CC(C)OC(=O)Nc1ccncc1` was tested, and the T/C (dose: 3.13 mg/kg/injection, schedule: Q01DX009 (ip), vehicle: saline with Tween-80) was 93 % of control, the T/C (dose: 6.25 mg/kg/injection, schedule: Q01DX009 (ip), vehicle: saline with Tween-80) was 97 % of control and the T/C (dose: 6.25 mg/kg/injection, schedule: Q04DX002 (ip), vehicle: saline with Tween-80) was 110 % of control. The T/C (dose: 12.5 mg/kg/injection, schedule: Q01DX009 (ip), vehicle: saline with Tween-80) was 101 % of control and the T/C (dose: 12.5 mg/kg/injection, schedule: Q04DX002 (ip), vehicle: saline with Tween-80) was 96 % of control.
With `Nc1cncc2ccccc12` the T/C (dose: 25.0 mg/kg/injection, schedule: Q01DX009 (ip), vehicle: gum acacia) was 96 % of control, the T/C (dose: 25.0 mg/kg/injection, schedule: Q04DX003 (ip), vehicle: gum acacia) was 100 % of control and the T/C (dose: 50.0 mg/kg/injection, schedule: Q01DX009 (ip), vehicle: gum acacia) was 111 % of control. For the same molecule, the T/C (dose: 50.0 mg/kg/injection, schedule: Q04DX003 (ip), vehicle: gum acacia) was 98 % of control, the T/C (dose: 100.0 mg/kg/injection, schedule: Q01DX009 (ip), vehicle: gum acacia) was 103 % of control and the T/C (dose: 100.0 mg/kg/injection, schedule: Q04DX003 (ip), vehicle: gum acacia) was 102 % of control and 104 % of control.
`CC(Oc1ccccc1)C(=O)Nc1ccc(F)cc1` (centres undefined) was tested, and the T/C (dose: 100.0 mg/kg/injection, schedule: Q04DX002 (ip), vehicle: Klucel (hydroxypropylcellulose) (HPC)) was 94 % of control, the T/C (dose: 200.0 mg/kg/injection, schedule: Q04DX002 (ip), vehicle: Klucel (hydroxypropylcellulose) (HPC)) was 97 % of control and the T/C (dose: 400.0 mg/kg/injection, schedule: Q04DX002 (ip), vehicle: Klucel (hydroxypropylcellulose) (HPC)) was 97 % of control.
`C(=N\Nc1nc2ccccc2s1)/c1ccnc2ccccc12` was tested, and the T/C [1] was 102 % of control, the T/C [2] was 101 % of control and the T/C [3] was 96 % of control.
In the case of `O=C(CSCC(=O)c1ccccc1)c1ccccc1`, the T/C (dose: 12.5 mg/kg/injection, schedule: Q01DX009 (ip), vehicle: Klucel (hydroxypropylcellulose) (HPC)) is reported as 93 % of control, the T/C (dose: 25.0 mg/kg/injection, schedule: Q01DX009 (ip), vehicle: Klucel (hydroxypropylcellulose) (HPC)) is reported as 104 % of control and the T/C [4] is reported as 112 % of control. The T/C (dose: 80.0 mg/kg/injection, schedule: Q01DX009 (ip), vehicle: Klucel (hydroxypropylcellulose) (HPC)) was 103 % of control, the T/C (dose: 115.0 mg/kg/injection, schedule: Q01DX009 (ip), vehicle: Klucel (hydroxypropylcellulose) (HPC)) was 100 % of control and the T/C (dose: 170.0 mg/kg/injection, schedule: Q01DX009 (ip), vehicle: Klucel (hydroxypropylcellulose) (HPC)) was 100 % of control.
With `O=[N+]([O-])c1ccc(O)c(/C=N/Nc2nnc(N/N=C/c3cc([N+](=O)[O-])ccc3O)c3ccccc23)c1` the T/C (dose: 50.0 mg/kg/injection, schedule: Q01DX001 (ip), vehicle: carboxymethylcellulose (CMC)) was 95 % of control, the T/C (dose: 100.0 mg/kg/injection, schedule: Q01DX001 (ip), vehicle: carboxymethylcellulose (CMC)) was 93 % of control and the T/C (dose: 200.0 mg/kg/injection, schedule: Q01DX001 (ip), vehicle: carboxymethylcellulose (CMC)) was 95 % of control. For the same molecule, the T/C (dose: 400.0 mg/kg/injection, schedule: Q01DX001 (ip), vehicle: carboxymethylcellulose (CMC)) was 93 % of control.
With `O=C(Nc1cc(Cl)ccc1Cl)c1cccc(F)c1` the T/C [1] was 92 % of control, the T/C [2] was 98 % of control and the T/C [3] was 98 % of control.
`NC(CCC(=O)NC(CSC(c1ccccc1)(c1ccccc1)c1ccccc1)C(=O)NCC(=O)O)C(=O)O` (centres undefined) was tested, and the T/C (dose: 25.0 mg/kg/injection, schedule: Q01DX009 (ip), vehicle: saline) was 109 % of control, the T/C [5] was 104 % of control and 114 % of control and the T/C [6] was 107 % of control and 113 % of control. For the same molecule, the T/C (dose: 200.0 mg/kg/injection, schedule: Q01DX009 (ip), vehicle: saline) was 124 % of control and the T/C (dose: 300.0 mg/kg/injection, schedule: Q01DX009 (ip), vehicle: saline) was 90 % of control.
In the case of `Cc1ccc(C2NC(=O)c3ccccc3N2)s1` (centres undefined), the T/C [4] is reported as 107 % of control and 92 % of control, the T/C [1] is reported as 98 % of control and 105 % of control and the T/C (dose: 150.0 mg/kg/injection, schedule: Q01DX009 (ip), vehicle: Klucel (hydroxypropylcellulose) (HPC)) is reported as 102 % of control. For the same molecule, the T/C [2] was 108 % of control and the T/C [3] was 87 % of control.
In the case of `CC(=O)c1ccc2ccc3cccc4ccc1c2c34`, the T/C (dose: 100.0 mg/kg/injection, schedule: Q04DX002 (ip), vehicle: gum acacia) is reported as 96 % of control, the T/C (dose: 200.0 mg/kg/injection, schedule: Q04DX002 (ip), vehicle: gum acacia) is reported as 96 % of control and the T/C (dose: 400.0 mg/kg/injection, schedule: Q04DX002 (ip), vehicle: gum acacia) is reported as 93 % of control.
With `OCC1OC(n2cnc3c(=S)nc[nH]c32)CC1O` (centres undefined) the T/C (dose: 8.0 mg/kg/injection, schedule: Q01DX015 (ip), vehicle: saline) was 103 % of control, the T/C (dose: 16.0 mg/kg/injection, schedule: Q01DX015 (ip), vehicle: saline) was 108 % of control and the T/C (dose: 32.0 mg/kg/injection, schedule: Q01DX015 (ip), vehicle: saline) was 115 % of control. The T/C (dose: 50.0 mg/kg/injection, schedule: Q01DX001 (ip), vehicle: saline) was 104 % of control, the T/C (dose: 64.0 mg/kg/injection, schedule: Q01DX015 (ip), vehicle: saline) was 122 % of control and the T/C [7] was 106 % of control. The T/C (dose: 178.0 mg/kg/injection, schedule: Q01DX001 (ip), vehicle: saline) was 113 % of control, the T/C (dose: 180.0 mg/kg/injection, schedule: Q01DX015 (ip), vehicle: saline) was 156 % of control and the T/C [8] was 115 % of control. For the same molecule, the T/C (dose: 267.0 mg/kg/injection, schedule: Q01DX001 (ip), vehicle: saline) was 108 % of control, the T/C (dose: 300.0 mg/kg/injection, schedule: Q01DX015 (ip), vehicle: saline) was 154 % of control and 156 % of control and the T/C [9] was 121 % of control. For the same molecule, the T/C (dose: 600.0 mg/kg/injection, schedule: Q01DX015 (ip), vehicle: saline) was 163 % of control.
With `CN(Cc1ccccc1)C(=O)Nc1cccc(C(F)(F)F)c1` the T/C [10] was 107 % of control, the T/C [11] was 98 % of control and the T/C (dose: 400.0 mg/kg/injection, schedule: Q01DX009 (ip), vehicle: saline with Tween-80) was 96 % of control.
With `O=C1OC(c2ccc([N+](=O)[O-])cc2)=N/C1=C\c1cc(Br)ccc1O` the T/C [1] was 91 % of control, the T/C [2] was 96 % of control and the T/C [3] was 93 % of control.
With `CC1(C)N=C(N)N=C(N)N1c1ccc(OCCNS(=O)(=O)c2ccc(S(=O)(=O)F)cc2)c(Cl)c1` the T/C (dose: 100.0 mg/kg/injection, schedule: Q04DX003 (ip), vehicle: saline with Tween-80) was 105 % of control.
With `CCC(C)n1ncc2c(N(C)C)ncnc21` (centres undefined) the T/C [5] was 103 % of control, the T/C (dose: 50.0 mg/kg/injection, schedule: Q04DX003 (ip), vehicle: saline) was 105 % of control and the T/C [7] was 98 % of control. For the same molecule, the T/C [6] was 115 % of control, the T/C [12] was 105 % of control and the T/C [8] was 102 % of control. The T/C [13] was 107 % of control.
For `CC1C(O)CN1C(C)(C)C` (centres undefined), the T/C [7] was 105 % of control, the T/C [8] was 106 % of control and the T/C [9] was 108 % of control.
With `CCOc1ccn(C2OC(CI)C(OC3OC(COC(C)=O)C(OC(C)=O)C(OC(C)=O)C3OC(C)=O)C(OC(C)=O)C2OC(C)=O)c(=O)n1` (centres undefined) the T/C (dose: 22.5 mg/kg/injection, schedule: Q01DX001 (ip), vehicle: carboxymethylcellulose (CMC)) was 100 % of control, the T/C (dose: 45.0 mg/kg/injection, schedule: Q01DX001 (ip), vehicle: carboxymethylcellulose (CMC)) was 100 % of control and the T/C (dose: 90.0 mg/kg/injection, schedule: Q01DX001 (ip), vehicle: carboxymethylcellulose (CMC)) was 97 % of control. For the same molecule, the T/C (dose: 180.0 mg/kg/injection, schedule: Q01DX001 (ip), vehicle: carboxymethylcellulose (CMC)) was 103 % of control.
With `COc1c(NC(=O)Nc2ccccc2Cl)cccc1[N+](=O)[O-]` the T/C (dose: 400.0 mg/kg/injection, schedule: Q04DX002 (ip), vehicle: saline with Tween-80) was 90 % of control.
`O=C(Oc1ccccc1Cl)c1ccccc1` was tested, and the T/C [10] was 113 % of control and the T/C [11] was 116 % of control.
For `N#CCCNC(=O)c1ccccc1`, the T/C (dose: 100.0 mg/kg/injection, schedule: Q01DX001 (ip), vehicle: acetone) was 107 % of control, the T/C (dose: 100.0 mg/kg/injection, schedule: Q01DX009 (ip), vehicle: acetone) was 90 % of control and the T/C [12] was 103 % of control. For the same molecule, the T/C (dose: 200.0 mg/kg/injection, schedule: Q01DX001 (ip), vehicle: acetone) was 102 % of control, the T/C (dose: 200.0 mg/kg/injection, schedule: Q01DX009 (ip), vehicle: acetone) was 92 % of control and the T/C [13] was 94 % of control. For the same molecule, the T/C (dose: 400.0 mg/kg/injection, schedule: Q01DX001 (ip), vehicle: acetone) was 102 % of control, the T/C (dose: 400.0 mg/kg/injection, schedule: Q01DX009 (ip), vehicle: acetone) was 90 % of control and the T/C (dose: 400.0 mg/kg/injection, schedule: Q04DX003 (ip), vehicle: saline) was 101 % of control.
